The subject of one data set is A549 cells. The data set can be described thus: Cellular cytotoxicity (Celltiter 96 MTS assay). The format is cell-based. The note with it: A549, 6 h exposure then 72 h incubation. The source says: The cytotoxic or cytostatic properties of compounds of formula (1) and compounds of formula DrXH can be assessed for example, by use, for example, of this assay. The Celltiter 96® Aqueous One Solution Cell Proliferation Assay kit (Promega Corporation, USA) which is a colorimetric method for determining the number of viable cells in proliferation or cytotoxicity assays was used. In this assay the MTS tetrazolium compound (Owen's Reagent) is bioreduced by viable cells into a coloured formazan product which is soluble in tissue culture medium and can be measured by recording absorbance at 490 nm with a 96 well plate reader. A549 cells were seeded in Eagles Minimum Essential Medium supplemented with 10% foetal calf serum and non-essential amino acids at […] on a 96 well plate and allowed to attach for 24 h. Compounds were dissolved in DMSO and diluted with cell culture medium before addition. The cells were exposed to test compound (0 to 2 μmol dm^−3) for 6 h then incubated for a further 72 h. The MTS reagent was added to each well, left for 4 h, then the absorbance measured at 490 nm with a 96 well plate reader. In this assay the compound of Example 1 had no activity at concentrations up to […] whereas combretastatin A4 reduced cell numbers to 50% of control at a concentration of around 250 nM.

The target in data set [1] is T1, Supersomal p450 reductase (Homo sapiens, UniProt P16435).
T1 construct: purchased Gentest P244
T1 sequence (P16435 1-677): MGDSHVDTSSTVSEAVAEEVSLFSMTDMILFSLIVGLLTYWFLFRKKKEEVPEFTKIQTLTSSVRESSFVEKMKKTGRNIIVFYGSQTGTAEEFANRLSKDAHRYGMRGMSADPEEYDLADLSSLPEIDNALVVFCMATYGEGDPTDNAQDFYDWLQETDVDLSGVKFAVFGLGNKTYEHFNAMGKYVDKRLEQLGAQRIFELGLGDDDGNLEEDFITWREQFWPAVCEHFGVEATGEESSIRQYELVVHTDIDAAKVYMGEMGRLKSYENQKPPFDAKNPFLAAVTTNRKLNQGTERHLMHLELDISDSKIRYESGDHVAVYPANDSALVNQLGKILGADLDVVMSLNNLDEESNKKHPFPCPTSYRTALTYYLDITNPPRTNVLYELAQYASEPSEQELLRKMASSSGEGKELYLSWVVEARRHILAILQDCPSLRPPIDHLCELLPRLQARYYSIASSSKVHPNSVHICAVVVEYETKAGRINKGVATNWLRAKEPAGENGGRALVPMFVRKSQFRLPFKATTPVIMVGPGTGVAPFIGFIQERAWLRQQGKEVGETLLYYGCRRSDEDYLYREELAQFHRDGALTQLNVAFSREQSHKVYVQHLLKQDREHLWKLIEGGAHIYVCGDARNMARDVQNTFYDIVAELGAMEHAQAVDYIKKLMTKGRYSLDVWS
The data set can be described thus: Drug release by cytochrome p450 reductase. In kind it is biochemical. Particulars: NADPH, pH 7.4, 37° C. As to the method:
Cytochrome p450 reductase is widely expressed in human tumours as well as in a range of normal tissues and is one of a number of enzymes that can catalyse bioreduction. […] Compounds were dissolved in DMSO to a concentration of 625 μM and 20 μL added to a mixture of 50 mmol dm^−3 potassium phosphate buffer at pH 7.4 (2.4 mL), NADPH (20 μL of a 10 mM solution) and 60 μL of Supersomal™ p450 reductase (Gentest; Catalogue number P244) and incubated at 37° C. For experiments under nitrogen the mixture was degassed with nitrogen for 20 minutes prior to compound addition and overgassed with nitrogen during the incubation. Samples (100 μl) were taken at regular intervals and added to an equivalent volume of acetonitrile, then mixed and centrifuged at 14, 300 RPM for 2 min prior to product analysis by HPLC. In this test the compound of Example 1 produced combretastatin A4 at a rate of […]·min^−1·mg protein^−1 under nitrogen but only 110 pmol·min^−1·mg protein^−1 under air.

Data set [2] can be described thus: Metabolism in liver homogenates. In kind it is in vitro ADME. Particulars: in air, mouse liver homogenate, NADPH, pH 7.4, 37° C. As to the method:
Metabolic stability of the compounds and unfavorable release of the drug by oxic liver can be assessed by using, for example, this assay. Freshly-excised mouse liver (approximately 1 g) was homogenised in 15 ml of ice-cold 50 mmol d-3 potassium phosphate buffer at pH 7.4. The homogenates were centrifuged at 1000 RPM for 10 min and the supernatants stored on ice. The metabolism of […] prodrug in air was performed with 0.5 ml liver homogenate (∫4 mg of protein by Bradford assay) with 100 μmol dm^−3 NADPH in 50 mmol dm^−3 potassium phosphate buffer at pH 7.4 incubated at 37° C. Samples (60 μl) were taken at regular intervals and added to an equivalent volume of acetonitrile, then mixed and centrifuged at 14, 300 RPM for 2 min prior to product analysis by HPLC. In this test the compound of Example 1 produced combretastatin A4 at a rate of only 3 pmol·min^−1·mg protein^−1. In contrast the corresponding compound 1-(4-methoxy-3-(5-nitrothiene-2-yl)methoxy)phenyl-2-(3,4,5-trimethoxy)phenyl-Z-ethene, lacking the key features of the invention produced combretastatin at a greater rate of 20 pmol·min^−1·mg proteins^−1.

Like-named read-outs stand apart in the source and are kept apart here.

For `COc1ccc(/C=C\c2cc(OC)c(OC)c(OC)c2)cc1O` [combretastatin A4, reference compound], in the data set on A549 cells (read-out: Concentration reducing cell numbers to 50% of control), the IC50 is around 250 nM.

`COc1ccc(/C=C\c2cc(OC)c(OC)c(OC)c2)cc1OC(C)(C)c1ccc([N+](=O)[O-])s1` [Example 1]: the “Rate of combretastatin A4 production” value is 110 pmol·min^−1·mg protein^−1 in data set [1] (under air) and 710 ppmol·min^−1·mg protein^−1 in data set [1] (under nitrogen). In addition, the IC50 in the data set on A549 cells (Homo sapiens, read-out: No activity at concentrations up to) is above 2000 nM.

Broadly, the melting point is the temperature of the solid-liquid transition. `CC(C)(Sc1ncnc2[nH]cnc12)c1ccc([N+](=O)[O-])cc1` [Example 4, 6-(2-(4-nitrophenyl)propan-2-ylsulfanyl)-9H-purine] had a melting point of 206 to 208 °C.

As to `COc1ccc(/C=C\c2cc(OC)c(OC)c(OC)c2)cc1OCc1ccc([N+](=O)[O-])s1` [1-(4-methoxy-3-(5-nitrothiene-2-yl)methoxy)phenyl-2-(3,4,5-trimethoxy)phenyl-Z-ethene], the “Rate of combretastatin A4 production” value in data set [2] was found to be 20 pmol·min^−1·mg protein^−1.

Source of the values: patent publication US20070099871A1, “Bioreductively-activated prodrugs” (ANGIOGENE PHARMACEUTICALS LIMITED, priority 2003, published 2007).
